# Source: paper PMC9849758, “Chemically diverse activity-based probes with unexpected inhibitory mechanisms targeting trypsin-like serine proteases” (Frontiers in Chemistry, 2023)
# Where a name gives a salt, the structure may show the parent alone. Read-outs that look alike come from different tables or passages of the source.
# Experiments:
# Assay type in all cases: biochemical
# [1] = target: T1, TLCK-treated pancreatic bovine chymotrypsin (Bos taurus, UniProt P00766); experiment: IC50 determination, spectrophotometric protease assay
# T1 construct: TLCK-treated pancreatic bovine chymotrypsin (Sigma-Aldrich); purchased Sigma-Aldrich; host or cells: bovine pancreas
# Procedure: (§1) The IC50 values were determined using a spectrophotometric assay. All the experiments were conducted in duplicate. The readout consisted of evaluating the protease-mediated release of the chromophore para-nitroaniline (pNA) or fluorophore 7-amino-4-methyl coumarin (AMC) moieties from the respective substrates. Enzymatic activity was measured for 30 min at 37°C. All compounds were initially screened at three concentrations (10, 1, and .1 μM) to estimate the range of the IC50 value. Those which were able to reduce protease activity by at least 50% at a concentration of 10 μM were submitted to an exact IC50 determination. […] A third independent experiment was performed when the standard deviation of the two independent experiments was higher than […]. IC50 values were obtained by fitting the data with the four-parameter logistics equation using GraphPad Prism 9.
# (§2) The conditions for each protease are described as follows, the concentration of substrate used was at the corresponding Km.
# [2] = target: T2, Trypsin-3 (recombinant trypsin-3) (Homo sapiens, UniProt P35030); experiment: as above
# T2 construct: purchased R&D
# T2 sequence (P35030 1-304): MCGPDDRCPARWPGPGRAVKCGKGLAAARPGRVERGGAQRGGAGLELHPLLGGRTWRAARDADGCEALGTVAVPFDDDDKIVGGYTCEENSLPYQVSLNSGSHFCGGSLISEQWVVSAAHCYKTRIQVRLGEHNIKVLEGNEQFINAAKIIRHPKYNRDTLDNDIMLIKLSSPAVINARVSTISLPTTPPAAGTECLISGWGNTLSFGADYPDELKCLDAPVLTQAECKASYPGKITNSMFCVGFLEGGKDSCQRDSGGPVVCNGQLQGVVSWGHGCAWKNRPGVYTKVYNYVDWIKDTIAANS
# Procedure: as §1, §2
# [3] = target: T3, β-tryptase (recombinant tryptase β-2) (Homo sapiens, UniProt P20231); experiment: as above
# T3 construct: purchased EnzoLife Sciences
# Procedure: as §1, §2
# [4] = target: T4, Cathepsin G (cathepsin G human neutrophil) (Homo sapiens, UniProt P08311); experiment: as above
# T4 construct: Cathepsin G (cathepsin G human neutrophil, Sigma-Aldrich); purchased Sigma-Aldrich; host or cells: human neutrophil
# T4 sequence (P08311 21-255): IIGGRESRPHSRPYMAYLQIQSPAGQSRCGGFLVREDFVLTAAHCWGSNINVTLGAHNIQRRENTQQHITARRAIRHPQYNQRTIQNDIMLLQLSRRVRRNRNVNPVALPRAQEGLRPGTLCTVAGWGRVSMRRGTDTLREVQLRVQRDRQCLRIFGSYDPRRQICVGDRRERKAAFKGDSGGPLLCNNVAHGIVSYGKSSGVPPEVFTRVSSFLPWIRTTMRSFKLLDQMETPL
# Procedure: as §1, §2
# [5] = target: T5, Thrombin (recombinant thrombin) (Homo sapiens, UniProt P00734); experiment: as above
# T5 construct: purchased R&D
# Procedure: as §1, §2
# [6] = target: T6, Trypsin-3 (Homo sapiens, UniProt P35030); experiment: Jump dilution, determination of inhibition type; set-up: purchased R&D; details: inhibitor at 10 times IC50, 15 min, diluted 10-fold or 100-fold; Rev./Irrev.
# T6 sequence (P35030 1-304): T2 sequence (P35030 1-304)
# Procedure: (§3) The dissociation of the enzyme-inhibitor complex was monitored by substrate hydrolysis over time ([Joossens et al., 2006]).
# (§4) Because ABPs are designed to be irreversible serine protease inhibitors, the IC50 is exclusively used as a first discriminatory evaluation. When an inhibitor is irreversible, its IC50 value not only depends on the substrate and enzyme concentration but also on the time of incubation with the enzyme before the reaction is started by adding the substrate. […] The progress curve in the presence of an irreversible inhibitor will show final velocities equal to zero (Figure 6C). In contrast, for a reversible inhibitor, progress curves have a non-zero final steady-state velocity (Figure 6A) ([McWhirter, 2021]). To corroborate the inhibitory mechanism of the compounds, jump-dilution assays were performed. These use an inhibitor concentration of 10-fold the IC50 for the incubation, and a posteriori, the reaction mixture is diluted 10-fold or 100-fold before adding the substrate. In the case of an irreversible inhibitor, enzymatic activity is not regained (Figure 6D), whereas, in the case of a reversible compound, a slow release of the inhibitor and a gradual increase of the enzymatic activity rate is observed (Figure 6B) ([Copeland, 2013]; [McWhirter, 2021]). The jump-dilution assays confirmed the behavior described by the progress curves.
# (§5) 2.2.2 Jump dilution results
# (§6) Supplementary Table 2. Jump dilution of selected alkyne and desthiobiotin probes against a panel of trypsin-like serine proteases. […]
# (§7) # R R DtBa 3 tryptase Thrombin uPA CatG
# (§8) 32b H Alk Irrev. Irrev. Rev. Irrev. Rev.
# (§9) 45b DtB Irrev. Irrev. Rev. N.D. N.D.
# (§10) 33b Alk Irrev. Irrev. Rev. Irrev. Rev.
# (§11) 46b Cl DtB Irrev. Irrev. Rev. N.D. N.D.
# (§12) 34b H Alk Rev. Rev. Rev. Irrev. Rev.
# (§13) 50b DtB Rev. Rev. Rev. Irrev. Rev.
# (§14) 35b Alk Rev. Rev. Rev. Irrev. Rev.
# (§15) 52b NHCOMe DtB Rev. Rev. Rev. Irrev. Rev.
# (§16) 36b Alk Rev. Rev. Rev. Irrev. Rev.
# (§17) 54b Cl DtB Rev. Rev. Rev. Irrev. Rev.
# (§18) 37b Alk Irrev. Irrev. N.D. Irrev. Irrev.
# (§19) 55b H DtB Irrev. Irrev. N.D. Irrev. Irrev.
# (§20) 38b Alk Irrev. Irrev. N.D. Irrev. Irrev.
# (§21) 56b NHCOMe DtB Irrev. Irrev. N.D. Irrev. Irrev.
# (§22) 39b Alk Irrev. Irrev. N.D. Irrev. Rev.
# (§23) 57b Cl DtB Irrev. Irrev. N.D. Irrev. Rev.
# (§24) 41b H Alk Irrev. Irrev. Irrev. N.D. N.D.
# (§25) 31b Pro-Lys H Alk Irrev. Irrev. Irrev. Irrev. N.D. a Alk: ABP precursor bearing an alkyne; DtB: desthiobiotin probe b Panel of serine proteases abbreviations: urokinase plasminogen activator (uPA), cathepsin G (catG) N.D.: IC50 is greater than 10µM, and jump dilution was not performed
# (§26) 2.2.3 Progress curves and Jump dilution experiments
# (§27) Kinetic assays were performed in the following manner. The inhibitor was mixed with the substrate, and the buffer solution with the enzyme was added at the time zero. The progress curves show the release of para-nitroaniline (pNA) or 7-amino-4-methyl coumarin (AMC) as a function of time.
# (§28) To monitor the dissociation of the inhibitor-enzyme, aliquots of the enzyme were incubated at 37 °C without and with the inhibitor at a concentration 10 times higher than its IC 50. The enzyme […]
# (§29) min, the aliquots were diluted 10-fold or 100-fold into the substrate concentration and assay buffer used for the IC50 determination. The dissociation of the enzyme-inhibitor complex was monitored by substrate hydrolysis over time. Blue lines represent the control where no inhibitor was present. Pink lines represent the assay with inhibitor.
# [7] = target: T7, CatG (Homo sapiens, UniProt P08311); experiment: Jump dilution, determination of inhibition type; set-up: Cathepsin G (cathepsin G human neutrophil, Sigma-Aldrich); purchased Sigma-Aldrich; details: inhibitor at 10 times IC50, 15 min, diluted 10-fold or 100-fold; Rev./Irrev.
# T7 sequence (P08311 21-255): T4 sequence (P08311 21-255)
# Procedure: as §3, §4, §5, §6, §7, §8, §9, §10, §11, §12, §13, §14, §15, §16, §17, §18, §19, §20, §21, §22, §23, §24, §25, §26, §27, §28, §29
# [8] = read-out: ChTryp IC50, desthiobiotin probes, 15 min preincubation at 37°C, mean ± SD
# [9] = read-out: Trypsin-3 IC50, desthiobiotin probes, 15 min preincubation at 37°C, mean ± SD
# [10] = read-out: β-tryptase IC50, desthiobiotin probes, 15 min preincubation at 37°C, mean ± SD
# [11] = read-out: CatG IC50, desthiobiotin probes, 15 min preincubation at 37°C, mean ± SD
# [12] = read-out: Thrombin IC50, desthiobiotin probes, 15 min preincubation at 37°C, mean ± SD
# T3 sequence (P20231 31-275): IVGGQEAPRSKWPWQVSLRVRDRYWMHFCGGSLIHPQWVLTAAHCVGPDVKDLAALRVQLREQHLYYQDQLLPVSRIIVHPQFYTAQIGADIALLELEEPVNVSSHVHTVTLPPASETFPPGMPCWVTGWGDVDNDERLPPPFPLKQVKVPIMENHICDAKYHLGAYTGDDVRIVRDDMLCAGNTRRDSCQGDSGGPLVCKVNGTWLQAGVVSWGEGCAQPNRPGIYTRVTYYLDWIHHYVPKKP
SMILES,IC50 [1] [nM],IC50 [2] [nM],IC50 [3] [nM],IC50 [4] [nM],"CatG IC50 ([4]; alkyne probes, 15 min preincubation at 37°C, mean ± SD)",IC50 [5] [nM],Trypsin-3 jump dilution result [6],CatG jump dilution result [7],"IC50 [1, 8] [nM]","IC50 [2, 9] [nM]","IC50 [3, 10] [nM]","IC50 [4, 11] [nM]","IC50 [5, 12] [nM]"
C#CCCCOC(=O)NC(C1CCN(C(=N)N)CC1)P(=O)(Oc1ccccc1)Oc1ccccc1 (centres unmarked) [41b],> 10000,40 ± 2,8370 ± 440,> 10000,no inhibition,30 ± 1,Irrev.,–,–,–,–,–,–
"C#CCCCOC(=O)NC(c1ccc(NC(=N)N)cc1)P(=O)(Oc1ccc(Cl)cc1)Oc1ccc(Cl)cc1 (centres unmarked) [39b, Pent-4-yn-1-yl ((bis(4-chlorophenoxy)phosphoryl)(4-guanidinophenyl)methyl)carbamate]",> 10000,90 ± 9,70 ± 4,90 ± 22,–,> 10000,Irrev.,Rev.,–,–,–,–,–
C[C@@H]1NC(=O)N[C@@H]1CCCCCC(=O)NCCOCCOCCOCCn1cc(CCCOC(=O)NC(CCCNC(=N)N)P(=O)(Oc2ccc(Cl)cc2)Oc2ccc(Cl)cc2)nn1 (some centres unmarked) [46b],–,–,–,–,–,–,Irrev.,–,> 10000,70 ± 2,40 ± 6,> 10000,40 ± 6
C#CCCCOC(=O)NC(CCCNC(=N)N)P(=O)(Oc1ccc(Cl)cc1)Oc1ccc(Cl)cc1 (centres unmarked) [33b],> 10000,40 ± 8,170 ± 10,2760 ± 50,–,110 ± 7,Irrev.,Rev.,–,–,–,–,–
C#CCCCOC(=O)NC(Cc1ccc(NC(=N)N)cc1)P(=O)(Oc1ccc(Cl)cc1)Oc1ccc(Cl)cc1 (centres unmarked) [36b],3230 ± 1210,< 1,70 ± 20,340 ± 8,–,1770 ± 50,Rev.,Rev.,–,–,–,–,–
CC(=O)Nc1ccc(OP(=O)(Oc2ccc(NC(C)=O)cc2)C(Cc2ccc(NC(=N)N)cc2)NC(=O)OCCCc2cn(CCOCCOCCOCCNC(=O)CCCCC[C@H]3NC(=O)N[C@H]3C)nn2)cc1 (some centres unmarked) [52b],> 10000,10 ± 1,70 ± 3,50 ± 7,–,760 ± 20,Rev.,Rev.,–,–,–,–,–
"C#CCCCOC(=O)NC(c1ccc(NC(=N)N)cc1)P(=O)(Oc1ccc(NC(C)=O)cc1)Oc1ccc(NC(C)=O)cc1 (centres unmarked) [38b, Pent-4-yn-1-yl ((bis(4-acetamidophenoxy)phosphoryl)(4-guanidinophenyl)methyl) carbamate]",> 10000,40 ± 15,120 ± 20,130 ± 10,–,> 10000,Irrev.,Irrev.,–,–,–,–,–
"C[C@@H]1NC(=O)N[C@@H]1CCCCCC(=O)NCCOCCOCCOCCn1cc(CCCOC(=O)NC(Cc2ccc(NC(=N)N)cc2)P(=O)(Oc2ccccc2)Oc2ccccc2)nn1 (stereo partly drawn) [50b, 3-(1-(18-((4R,5S)-5-methyl-2-oxoimidazolidin-4-yl)-13-oxo-3,6,9-trioxa-12-azaoctadecyl)-1H-1,2,3-triazol-4-yl)propyl (1-(diphenoxyphosphoryl)-2-(4-guanidinophenyl)ethyl)carbamate trifluoroacetate salt]",1640 ± 500,30 ± 10,360 ± 70,360 ± 4,–,3520 ± 390,Rev.,Rev.,–,–,–,–,–
"C#CCCCOC(=O)NC(c1ccc(NC(=N)N)cc1)P(=O)(Oc1ccccc1)Oc1ccccc1.O=C(O)C(F)(F)F (centres unmarked) [37b, Pent-4-yn-1-yl ((diphenoxyphosphoryl)(4-guanidinophenyl)methyl)carbamate trifluoroacetate salt]",> 10000,230 ± 10,900 ± 100,640 ± 30,–,> 10000,Irrev.,Irrev.,–,–,–,–,–
C[C@@H]1NC(=O)N[C@@H]1CCCCCC(=O)NCCOCCOCCOCCn1cc(CCCOC(=O)NC(CCCNC(=N)N)P(=O)(Oc2ccccc2)Oc2ccccc2)nn1 (some centres unmarked) [45b],–,–,–,–,–,–,Irrev.,–,> 10000,220 ± 20,800 ± 50,> 10000,610 ± 170
